From patent publication US20230093861A1, “RAPAMYCIN ANALOGS AS MTOR INHIBITORS” (Revolution Medicines, Inc., priority 2017, published 2023)
Where two headings read alike, the source gives them in different places.

What was measured:
P-P70S6K (T389) = experiment: Cell based AlphaLISA assay, inhibition of P-P70S6K (T389) (mTORC1 substrate phosphorylation) in MDA-MB-468 cells; conditions: Homo sapiens, 4 h, AlphaLISA, two to four hours at 37° C., read-out: pIC50 for Inhibition of mTORC1 and mTORC2 Substrate Phosphorylation, P-P70S6K-(T389) (converted)
Method in brief: (§1)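 AlphaLISA SureFire Ultra detection of phosphorylated substrate in lysed cells; duplicate Alpha reads; control-normalized IC50 fitting.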

P-4E-BP1 (T37/46) = experiment: Cell based AlphaLISA assay, inhibition of P-4E-BP1 (T37/46) (mTORC1 substrate phosphorylation) in MDA-MB-468 cells; conditions: Homo sapiens, AlphaLISA, two to four hours at 37° C., read-out: pIC50 for Inhibition of mTORC1 and mTORC2 Substrate Phosphorylation, P-4E-BP1-(T37/46) (converted)
Method in brief: as §1

P-Akt (S473) = experiment: Cell based AlphaLISA assay, inhibition of P-Akt (S473) (mTORC2 substrate phosphorylation) in MDA-MB-468 cells; conditions: Homo sapiens, AlphaLISA, two to four hours at 37° C., read-out: pIC50 for Inhibition of mTORC1 and mTORC2 Substrate Phosphorylation, p-AKT 1/2/3 -(S473) (converted)
Method in brief: as §1

SMILES	IC50 (P-P70S6K (T389))	IC50 (P-4E-BP1 (T37/46); MDA-MB-468, 4 h)	IC50 (P-Akt (S473); MDA-MB-468, 4 h)	IC50 (P-4E-BP1 (T37/46); 4 h)	IC50 (P-Akt (S473); 4 h)
COC(=O)N[C@H]1C[C@@H]2CC[C@@H](C)[C@@](O)(O2)C(=O)C(=O)N2CCCC[C@H]2C(=O)O[C@H]([C@H](C)C[C@@H]2CC[C@@H](OCCCCc3cn(CCOCCOCCOCCOCCOCCOCCOCCOCCC(=O)NCCCCn4nc(-c5cnc6[nH]ccc6c5)c5c(N)ncnc54)nn3)[C@H](OC)C2)CC(=O)[C@H](C)/C=C(\C)[C@@H](O)[C@@H](OC)C(=O)[C@H](C)C[C@H](C)/C=C/C=C/C=C/1C [Example 81]	1 to 10 nM	3.16 to 31.6 nM	31.6 to 1000 nM	–	–
CO[C@H]1C[C@@H]2CC[C@@H](C)[C@@](O)(O2)C(=O)C(=O)N2CCCC[C@H]2C(=O)O[C@H]([C@H](C)C[C@@H]2CC[C@H](n3cc(COC(=O)NCCOCCOCCOCCC(=O)NCCOCCOCCC(=O)NCCCCn4nc(-c5cc6cc(O)ccc6[nH]5)c5c(N)ncnc54)nn3)[C@H](OC)C2)C/C(=N/OC(C)(C)C)[C@H](C)/C=C(\C)[C@@H](O)[C@@H](OC)C(=O)[C@H](C)C[C@H](C)/C=C/C=C/C=C/1C [Example 159]	< 1 nM	> 1000 nM	> 1000 nM	–	–
CO[C@H]1C[C@@H]2CC[C@@H](C)[C@@](O)(O2)C(=O)C(=O)N2CCCC[C@H]2C(=O)O[C@H]([C@H](C)C[C@@H]2CC[C@@H](OCCCCc3cn(CCOCCOCCOCCNC(=O)CCCC(=O)NCCCCn4nc(-c5ccc6oc(N)nc6c5)c5c(N)ncnc54)nn3)[C@H](OC)C2)CC(=O)[C@H](C)/C=C(\C)[C@@H](O)[C@@H](OC)C(=O)[C@H](C)C[C@H](C)/C=C/C=C/C=C/1C [Example 100]	< 1 nM	31.6 to 1000 nM	3.16 to 31.6 nM	–	–
CO/N=C1/C[C@@H]([C@H](C)C[C@@H]2CC[C@H](n3cc(CCCC(=O)NCCOCCOCCOCCC(=O)NCCOCCOCCOCCC(=O)NCCCCn4nc(-c5ccc6oc(N)nc6c5)c5c(N)ncnc54)nn3)[C@H](OC)C2)OC(=O)[C@@H]2CCCCN2C(=O)C(=O)[C@]2(O)O[C@@H](CC[C@H]2C)C[C@H](OC)/C(C)=C/C=C/C=C/[C@@H](C)C[C@@H](C)C(=O)[C@H](OC)[C@H](O)/C(C)=C/[C@H]1C [Example 171]	10 to 1000 nM	31.6 to 1000 nM	> 1000 nM	–	–
CO[C@H]1C[C@@H]2CC[C@@H](C)[C@@](O)(O2)C(=O)C(=O)N2CCCC[C@H]2C(=O)O[C@H]([C@H](C)C[C@@H]2CC[C@@H](OC(=O)NCc3cn(CCOCCOCCOCCOCCOCCOCCOCCOCCC(=O)NCCCCn4nc(-c5ccc6oc(N)nc6c5)c5c(N)ncnc54)nn3)[C@H](OC)C2)CC(=O)[C@H](C)/C=C(\C)[C@@H](O)[C@@H](OC)C(=O)[C@H](C)C[C@H](C)/C=C/C=C/C=C/1C [Example 61]	1 to 10 nM	3.16 to 31.6 nM	3.16 to 31.6 nM	–	–
CO[C@H]1C[C@@H]2CC[C@@H](C)[C@@](O)(O2)C(=O)C(=O)N2CCCC[C@H]2C(=O)O[C@H]([C@H](C)C[C@@H]2CC[C@@H](OCCCCc3cn(CCOCCOCCOCCOCCOCCOCCC(=O)N4CCN(c5ccc(-n6c(=O)ccc7cnc8ccc(-c9cnc%10ccccc%10c9)cc8c76)cc5C(F)(F)F)CC4)nn3)[C@H](OC)C2)CC(=O)[C@H](C)/C=C(\C)[C@@H](O)[C@@H](OC)C(=O)[C@H](C)C[C@H](C)/C=C/C=C/C=C/1C [Example 67]	< 1 nM	< 3.16 nM	< 3.16 nM	–	–
CO[C@H]1C[C@@H]2CC[C@@H](C)[C@@](O)(O2)C(=O)C(=O)N2CCCC[C@H]2C(=O)O[C@H]([C@H](C)C[C@@H]2CC[C@H](n3nncc3-c3cccc(-c4cnc(N5CCN(S(=O)(=O)CCc6cn(CCOCCOCCC(=O)NCCCCn7nc(-c8ccc9oc(N)nc9c8)c8c(N)ncnc87)nn6)CC5)nc4)c3)[C@H](OC)C2)CC(=O)[C@H](C)/C=C(\C)[C@@H](O)[C@@H](OC)C(=O)[C@H](C)C[C@H](C)/C=C/C=C/C=C/1C [Example 36]	< 1 nM	3.16 to 31.6 nM	3.16 to 31.6 nM	–	–
CO[C@H]1C[C@@H]2CC[C@@H](C)[C@@](O)(O2)C(=O)C(=O)N2CCCC[C@H]2C(=O)O[C@H]([C@H](C)C[C@@H]2CC[C@@H](OCCCCc3cn(CCOCCOCCOCCOCCOCCOCCC(=O)NCCCCn4nc(-c5cnc6[nH]ccc6c5)c5c(N)ncnc54)nn3)[C@H](OC)C2)CC(=O)[C@H](C)/C=C(\C)[C@@H](O)[C@@H](OC)C(=O)[C@H](C)C[C@H](C)/C=C/C=C/C=C/1C [Example 68]	< 1 nM	–	–	3.16 to 31.6 nM	31.6 to 1000 nM
